What is called IC50 is the concentration that gives 50% inhibition.

Where a name gives a salt, the structure may show the parent alone.

The assay addresses T1, human recombinant ENPP1 enzymes (Homo sapiens, UniProt P22413).
T1 construct: purchased R & D systems
T1 sequence (P22413 1-925): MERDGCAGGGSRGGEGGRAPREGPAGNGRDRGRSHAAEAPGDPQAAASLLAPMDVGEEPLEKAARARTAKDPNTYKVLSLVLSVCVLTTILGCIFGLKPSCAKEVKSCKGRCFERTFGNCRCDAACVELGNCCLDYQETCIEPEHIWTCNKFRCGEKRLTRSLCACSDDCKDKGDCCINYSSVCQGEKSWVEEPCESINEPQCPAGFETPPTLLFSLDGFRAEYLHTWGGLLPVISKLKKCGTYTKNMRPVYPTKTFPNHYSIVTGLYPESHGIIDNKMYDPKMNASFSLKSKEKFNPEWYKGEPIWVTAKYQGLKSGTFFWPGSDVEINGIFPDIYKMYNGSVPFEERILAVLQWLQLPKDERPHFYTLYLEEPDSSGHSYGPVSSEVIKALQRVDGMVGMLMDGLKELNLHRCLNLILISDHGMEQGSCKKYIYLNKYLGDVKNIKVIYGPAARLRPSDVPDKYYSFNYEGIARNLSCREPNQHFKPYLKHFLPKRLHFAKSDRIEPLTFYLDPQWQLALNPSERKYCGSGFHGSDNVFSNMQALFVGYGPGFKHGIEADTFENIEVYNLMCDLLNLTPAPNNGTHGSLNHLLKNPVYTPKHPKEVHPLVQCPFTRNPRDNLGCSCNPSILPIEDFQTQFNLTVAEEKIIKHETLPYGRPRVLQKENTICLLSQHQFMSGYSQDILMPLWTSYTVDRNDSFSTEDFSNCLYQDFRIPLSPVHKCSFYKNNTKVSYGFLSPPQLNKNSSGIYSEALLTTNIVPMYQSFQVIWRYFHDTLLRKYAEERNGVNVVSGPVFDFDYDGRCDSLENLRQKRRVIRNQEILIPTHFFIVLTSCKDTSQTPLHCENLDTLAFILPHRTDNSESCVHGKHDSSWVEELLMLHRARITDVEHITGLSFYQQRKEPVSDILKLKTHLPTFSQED
Briefly: ENPP1 Enzyme Assay with cGAMP Substrate (AMP-Glo). The format is biochemical. Particulars: human recombinant ENPP1, cGAMP 5 μM, 37° C. 90 minutes, AMP-Glo luminescence; read-out: Enzymatic activity (IC50). On the procedure: ENPP1 hydrolyzes nucleotides or nucleotide derivatives to produce nucleoside-5′-monophosphate and pyrophosphate. In addition, ENPP1 hydrolyzes 2′,3′-cGAMP to produce 5′-adenosine monophosphate (AMP) and 5′-guanosine monophosphate (GMP). AMP produced from the reaction is measured using the AMP-Glo® kit (Promega). The AMP-Glo® kit contains two reagents. The first reagent terminates the AMP-producing enzymatic reaction, removes ATP and converts the produced AMP into ADP. The second reagent converts ADP into ATP which is used to generate luminescence in the luciferase reaction. The amount of luminescence measured is proportional to the amount of AMP produced by ENPP1.
The final reaction solution contains 50 mM Tris (pH 8.5) buffer, 250 mM NaCl, 0.5 mM CaCl2), 1 μM ZnCl2, 5% glycerol and 1% DMSO. Serially diluted ENPP1 inhibitors (typically in the range of 10 μM to 0.5 nM) were pre-stored with human recombinant ENPP1 enzymes (R & D systems) at 3 ng/reaction and room temperature (RT) for 5 to 10 minutes. The reaction was initiated by addition of cGAMP (at a final concentration of 5 μM) and reacted at 37° C. for 90 minutes. At the end of the reaction, 10 μl of the AMP-Glo first reagent was added to stop the reaction and the result was stored at room temperature for 1 hour. After storage, 20 μl of an AMP detection solution (a mixture of AMP-Glo II reagent and Kinase-Glo at a ratio of 1:100) was added and stored at room temperature for 1 hour. Luminescence signals were measured using a Victor® plate reader (Perkin Elmer). The maximal activity control (containing enzymes and substrates in the presence of 1% DMSO; MAX) and the minimal activity control (containing substrates and 1% DMSO; MIN) were evaluated simultaneously. In each experiment, serially diluted reference ENPP1 inhibitors were tested as well. IC50, indicating % residual activity versus compound concentration was determined by fitting inhibition curves using the 3-parameter analysis of GraphPad Prism® software. Serially diluted samples of one compound were tested two or more times and an average IC50 of each compound was calculated.
As for `COc1ccc2c(c1)nnn2-c1cccc(CNS(N)(=O)=O)c1` [Example 49, N-(3-(5-methoxy-1H-benzo[d][1,2,3]triazol-1-yl)benzyl)sulfamide], the IC50 fell in the range of 1000 to 10000 nM.
With `COc1cccc2c1nnn2-c1ccc(CNS(N)(=O)=O)cc1` [Example 50, N-(4-(4-methoxy-1H-benzo[d][1,2,3]triazol-1-yl)benzyl)sulfamide], the IC50 is below 1000 nM.
Regarding `COc1ccc2c(c1)nnn2-c1ccc(CNS(N)(=O)=O)cc1` [Example 51, N-(4-(5-methoxy-1H-benzo[d][1,2,3]triazol-1-yl)benzyl)sulfamide Hydrochloride], the concentration for half-maximal inhibition (IC50) was below 1000 nM.
Next, `COc1ccc2nnn(-c3ccc(CNS(N)(=O)=O)cc3)c2c1` [Example 52, N-(4-(6-methoxy-H-benzo[d][1,2,3]triazol-1-yl)benzyl)sulfamide]: below 1000 nM; `COc1cccc2nnn(-c3ccc(CNS(N)(=O)=O)cc3)c12` [Example 53, N-(4-(7-methoxy-1H-benzo[d][1,2,3]triazol-1-yl)benzyl)sulfamide]: above 10000 nM.
With `COc1cc(OC)c2nnn(-c3ccc(CNS(N)(=O)=O)cc3)c2c1` [Example 54, N-(4-(4,6-dimethoxy-1H-benzo[d][1,2,3]triazol-1-yl)benzyl)sulfamide], the IC50 was 1000 to 10000 nM.
As to `COc1cc2nnn(-c3ccc(CNS(N)(=O)=O)cc3)c2cc1OC` [Example 55, N-(4-(5,6-dimethoxy-1H-benzo[d][1,2,3]triazol-1-yl)benzyl)sulfamide], the IC50 is below 1000 nM.
To `NS(=O)(=O)NCc1ccc(-n2nnc3ccccc32)c(F)c1` [Example 56, N-(4-(1H-benzo[d][1,2,3]triazol-1-yl)-3-fluorobenzyl)sulfamide] belongs below 1000 nM; to `NS(=O)(=O)NCc1ccc(-n2nnc3ccccc32)c(F)c1F` [Example 57, N-(4-(1H-benzo[d][1,2,3]triazol-1-yl)-2,3-difluorobenzyl)sulfamide], below 1000 nM.
In the case of `NS(=O)(=O)NCc1cc(F)c(-n2nnc3ccccc32)c(F)c1` [Example 58, N-(4-(1H-benzo[d][1,2,3]triazol-1-yl)-3,5-difluorobenzyl)sulfamide], the IC50 is below 1000 nM.
Take `COc1ccc2c(c1)nnn2-c1ccc(CNS(N)(=O)=O)cc1Cl` [Example 59, N-(3-chloro-4-(5-methoxy-1H-benzo[d][1,2,3]triazol-1-yl)benzyl)sulfamide]: the IC50 was below 1000 nM.
Consider `COc1ccc2c(c1)nnn2-c1ccc(CNS(N)(=O)=O)c(F)c1` [Example 60, N-(2-fluoro-4-(5-methoxy-1H-benzo[d][1,2,3]triazol-1-yl)benzyl)sulfamide], for which the IC50 is below 1000 nM.
On to `COc1ccc2c(c1)nnn2-c1ccc(CNS(N)(=O)=O)cc1F` [Example 61, N-(4-(5-methoxy-1H-benzo[d][1,2,3]triazol-1-yl)-3-fluorobenzyl)sulfamide], for which the IC50 is below 1000 nM.
For `COc1ccc2c(c1)nnn2-c1c(F)cc(CNS(N)(=O)=O)cc1F` [Example 64, N-(3,5-difluoro-4-(5-methoxy-1H-benzo[d][1,2,3]triazol-1-yl)-benzyl)sulfamide], the IC50 is below 1000 nM.
Regarding `COc1ccc2c(c1)nnn2-c1ccc(CNS(N)(=O)=O)c(F)c1F` [Example 65, N-(2,3-difluoro-4-(5-methoxy-1H-benzo[d][1,2,3]triazol-1-yl)-benzyl)sulfamide], the IC50 is below 1000 nM.
With `COc1ccc2c(c1)nnn2-c1ccc(CNS(N)(=O)=O)cc1C` [Example 66, N-(4-(5-methoxy-1H-benzo[d][1,2,3]triazol-1-yl)-3-methylbenzyl)sulfamide], the IC50 is below 1000 nM.
Next, `COc1ccc2c(c1)nnn2-c1ccc(CNS(N)(=O)=O)cc1OC` [Example 68, N-(3-methoxy-4-(5-methoxy-1H-benzo[d][1,2,3]triazol-1-yl)benzyl)sulfamide]: 1000 to 10000 nM; `COc1cc2nnn(-c3ccc(CNS(N)(=O)=O)cc3)c2cc1C` [Example 69, N-(4-(5-methoxy-6-methyl-1H-benzo[d][1,2,3]triazol-1-yl)benzyl)sulfamide]: 1000 to 10000 nM; `COc1cc2nnn(-c3ccc(CNS(N)(=O)=O)cc3F)c2cc1C` [Example 70, N-(3-fluoro-4-(5-methoxy-6-methyl-1H-benzo[d][1,2,3]triazol-1-yl)benzyl)sulfamide]: below 1000 nM.
Consider `COc1cc2nnn(-c3ccc(CNS(N)(=O)=O)cc3F)c2cc1OC` [Example 71, N-(4-(5,6-dimethoxy-1H-benzo[d][1,2,3]triazol-1-yl)-3-fluorobenzyl)sulfamide], for which the IC50 was below 1000 nM.
Next, `COc1ccc2c(c1)nnn2-c1cccc(CCNS(N)(=O)=O)c1` [Example 72, N-(3-(5-methoxy-1H-benzo[d][1,2,3]triazol-1-yl)phenethyl)sulfamide]: below 1000 nM; `COc1ccc2c(c1)nnn2-c1ccc(CCNS(N)(=O)=O)cc1` [Example 73, N-(4-(5-methoxy-1H-benzo[d][1,2,3]triazol-1-yl)phenethyl)sulfamide Hydrochloride]: below 1000 nM; `NS(=O)(=O)NCc1ccc(-n2nnc3cc(O)ccc32)c(F)c1` [Example 74, N-(3-fluoro-4-(5-hydroxy-1H-benzo[d][1,2,3]triazol-1-yl)benzyl)sulfamide]: below 1000 nM.
`Cc1ccc2c(c1)nnn2-c1ccc(CNS(N)(=O)=O)cc1F` [Example 75, N-(3-fluoro-4-(5-methyl-1H-benzo[d][1,2,3]triazol-1-yl)benzyl)sulfamide]: the IC50 was above 10000 nM.
Consider `CCOc1ccc2c(c1)nnn2-c1ccc(CNS(N)(=O)=O)cc1F` [Example 76, N-(4-(5-ethoxy-1H-benzo[d][1,2,3]triazol-1-yl)-3-fluorobenzyl)sulfamide], for which the IC50 is above 10000 nM.
With `CC(C)Oc1ccc2c(c1)nnn2-c1ccc(CNS(N)(=O)=O)cc1F` [Example 77, N-(3-fluoro-4-(5-isopropoxy-1H-benzo[d][1,2,3]triazol-1-yl)benzyl)sulfamide], the IC50 is above 10000 nM.
As to `COc1ccc2c(c1)nnn2-c1ccc(CNS(N)(=O)=O)nc1` [Example 78], the IC50 is below 1000 nM.
With `COc1ccc2c(c1)nnn2-c1ccc(CNS(N)(=O)=O)cn1` [Example 79, (N-(6-(5-methoxy-1H-benzo[d][1,2,3]triazol-1-yl)pyridin-3-yl)methyl)sulfamide], the IC50 was above 10000 nM.
On to `COc1ccc2c(c1)nnn2-c1ccc(CN(C)S(N)(=O)=O)cc1` [Example 80], for which the IC50 is below 1000 nM.
As for `COc1ccc2c(c1)nnn2-c1ccc(CN(C)S(N)(=O)=O)cc1F` [Example 81, N-(3-fluoro-4-(5-methoxy-1H-benzo[d][1,2,3]triazol-1-yl)benzyl)-N-methylsulfamide], the IC50 is below 1000 nM.
`COc1ccc2c(c1)nnn2-c1ccc(CN(C2CC2)S(N)(=O)=O)cc1` [Example 82, N-cyclopropyl-N-(4-(5-methoxy-1H-benzo[d][1,2,3]triazol-1-yl)benzyl)sulfamide]: the IC50 was below 1000 nM.
Turning to `COc1ccc2c(c1)nnn2-c1ccc([C@H](C)NS(N)(=O)=O)cc1` [Example 83, (S)—N-(1-(4-(5-methoxy-1H-benzo[d][1,2,3]triazol-1-yl)phenyl)ethyl)sulfamide], the IC50 was below 1000 nM.
For `NS(=O)(=O)NCc1ccc(-n2nnc3cc(C(F)(F)F)ccc32)cc1` [Example 84], the IC50 was above 10000 nM.

The values above are taken from patent US20240116882A1, “NOVEL BENZOTRIAZOLE DERIVATIVE HAVING INHIBITORY ACTIVITY AGAINST ECTONUCLEOTIDE PYROPHOSPHATASE-PHOSPHODIESTERASE, AND USE THEREOF” (TXINNO BIOSCIENCE INC., priority 2021, published 2024).
